Reference: patent US11147272B2, “Pyridone compounds and agricultural and horticultural fungicides comprising the same as active ingredients” (MITSUI CHEMICALS AGRO, INC., priority 2017, dated 2021)
Read-outs that look alike come from different tables or passages of the source.

How the values were obtained:
[1] = system: Colletotrichum orbiculare; assay: Test Example H: Anthracnose on cucumber; conditions: for Test H control value class: Anthracnose on cucumber (Sagami Hanjiro), 2.5 ml/pot, assessed 6 to 10 days after inoculation; for pest or weed control at 250 ppm: Colletotrichum orbiculare, in Cucumis sativus, topical; for Test H control value: 6 to 10 days after inoculation
Phytophthora infestans = assay: whole plant or invertebrate; assay type: in vivo; conditions: for Test F control value class: class of control value; for pest or weed control at 250 µg/mL: Phytophthora infestans, in Solanum lycopersicum, topical
[2] = system: Blumeria graminis f. sp. hordei; assay: Test Example D: Powdery mildew on barley; conditions: for Test D control value class: class of control value; for pest or weed control at 250 µg/mL: Blumeria graminis, in Hordeum vulgare, topical
Botrytis cinerea = assay: Test Example B: Gray mold on tomato; conditions: for Test B control value class: class of control value; for pest or weed control at 250 µg/mL: Botrytis cinerea, in Solanum lycopersicum, topical
Puccinia recondita = assay: Test Example E: Brown rust on wheat; assay type: in vivo; conditions: for pest or weed control at 250 µg/mL: Puccinia recondita, topical
Magnaporthe grisea = assay: whole plant or invertebrate; assay type: in vivo; conditions: for Test A control value class: class of control value; for pest or weed control at 250 µg/mL: Pyricularia oryzae, in Oryza sativa
Alternaia brassicicola = assay: Test Example C: Alternaria sooty spot on cabbage; assay type: in vivo; conditions: for pest or weed control at 250 µg/mL: Brassica oleracea, topical
From the text: Seeds of a test plant (cabbage variety: Shikidori) were planted and cultivated until the cotyledons extended.
<Control Value> Control value=100{1−(n/3)}

Plasmopara viticola = assay: Test Example G: Downy mildew on vine; conditions: for Test G control value class: Downy mildew on vine (Neomuscat), 2.5 ml/pot, assessed 7 to 10 days after inoculation; for pest or weed control at 250 ppm: Plasmopara viticola, topical; for Test G control value: 7 to 10 days after inoculation
[3] = Brown rust on wheat, class of control value
[4] = Alternaria sooty spot on cabbage, class of control value
[5] = 250 ppm drug solution sprayed (2.5 ml/pot), cucumber Sagami Hanjiro
[6] = 250 ppm drug solution sprayed on test plant
[7] = 250 ppm drug solution sprayed (2.5 ml/pot), grape Neomuscat
[8] = Anthracnose on cucumber, 250 ppm spray
[9] = Late blight on tomato, control value class
[10] = Powdery mildew on barley, control value class
[11] = Gray mold on tomato, control value class
[12] = Brown rust on wheat, control value class
[13] = Blast on rice, control value class
[14] = Alternaria sooty spot on cabbage, control value class
[15] = Downy mildew on vine, 250 ppm spray

C#CCOc1cccc(F)c1-c1c(CC(C)C)cc(Cl)c(=O)n1CC [compound 102]
Test H control value class ([1]; 250 ppm spray): H (more than 50% control value)
Test F control value class (Phytophthora infestans; Late blight on tomato): L (50% or less control value)
Test D control value class ([2]; Powdery mildew on barley): H (more than 50% control value)
Test B control value class (Botrytis cinerea; Gray mold on tomato): H (more than 50% control value)
Test E control value class (Puccinia recondita; [3]): H (more than 50% control value)
Test A control value class (Magnaporthe grisea; Blast on rice): H (more than 50% control value)
Test C control value class (Alternaia brassicicola; [4]): H (more than 50% control value)
Test G control value class (Plasmopara viticola; 250 ppm spray): H (more than 50% control value)

CCCc1cc(Br)c(=O)n(C)c1-c1ccc(F)cc1Cl [Compound No. 333, 3-bromo-6-(2-chloro-4-fluorophenyl)-1-methyl-5-propylpyridin-2(1H)-one]
pest or weed control at 250 ppm ([1]; 144 h, read-out: Test H control value): > 50%
pest or weed control at 250 µg/mL (Phytophthora infestans; read-out: Test F control value): < 50%
pest or weed control at 250 µg/mL ([2]; read-out: Test D control value): < 50%
pest or weed control at 250 µg/mL (Botrytis cinerea; read-out: Test B control value): > 50%
pest or weed control at 250 µg/mL (Puccinia recondita; Brown rust on wheat, control value class, read-out: Test E control value): > 50%
pest or weed control at 250 µg/mL (Magnaporthe grisea; read-out: Test A control value): > 50%
pest or weed control at 250 µg/mL (Alternaia brassicicola; Alternaria sooty spot on cabbage, control value class, read-out: Test C control value): > 50%
pest or weed control at 250 ppm (Plasmopara viticola; 168 h, read-out: Test G control value): < 50%

CCc1cc(Cl)c(=O)n(CC)c1-c1c(F)cc(OC)cc1F [compound 390]
Test H control value [1, 5]: H (more than 50% control value)
Test F control value (Phytophthora infestans; [6]): L (50% or less control value)
Test D control value [2, 6]: H (more than 50% control value)
Test B control value (Botrytis cinerea; [6]): H (more than 50% control value)
Test E control value (Puccinia recondita; [6]): H (more than 50% control value)
Test A control value (Magnaporthe grisea; [6]): H (more than 50% control value)
Test C control value (Alternaia brassicicola; [6]): H (more than 50% control value)
Test G control value (Plasmopara viticola; [7]): H (more than 50% control value)

CCCc1ccc(=O)n(C)c1-c1ccc(F)cc1C [compound 419]
Test H control value [1, 5]: H (more than 50% control value)
Test F control value (Phytophthora infestans; [6]): L (50% or less control value)
Test D control value [2, 6]: L (50% or less control value)
Test B control value (Botrytis cinerea; [6]): L (50% or less control value)
Test E control value (Puccinia recondita; [6]): L (50% or less control value)
Test A control value (Magnaporthe grisea; [6]): L (50% or less control value)
Test C control value (Alternaia brassicicola; [6]): H (more than 50% control value)
Test G control value (Plasmopara viticola; [7]): L (50% or less control value)

CCn1c(-c2c(F)cc(F)cc2F)c(C(Br)=CBr)cc(Cl)c1=O [compound 326]
Test H control value [1, 8]: H (more than 50% control value)
Test F control value (Phytophthora infestans; [9]): L (50% or less control value)
Test D control value [2, 10]: H (more than 50% control value)
Test B control value (Botrytis cinerea; [11]): H (more than 50% control value)
Test E control value (Puccinia recondita; [12]): H (more than 50% control value)
Test A control value (Magnaporthe grisea; [13]): H (more than 50% control value)
Test C control value (Alternaia brassicicola; [14]): H (more than 50% control value)
Test G control value (Plasmopara viticola; [15]): L (50% or less control value)

CCn1c(-c2c(F)cccc2F)c(C(C)(F)CC)cc(Cl)c1=O (stereo not drawn) [Compound No. 30, 3-chloro-6-(2,6-difluorophenyl)-1-ethyl-5-(2-fluorobutan-2-yl)pyridin-2(1H)-one]
pest or weed control at 250 ppm ([1]; read-out: Test H control value class): > 50%
pest or weed control at 250 µg/mL (Phytophthora infestans; read-out: Test F control value class): < 50%
pest or weed control at 250 µg/mL ([2]; read-out: Test D control value class): > 50%
pest or weed control at 250 µg/mL (Botrytis cinerea; read-out: Test B control value class): > 50%
pest or weed control at 250 µg/mL (Puccinia recondita; Brown rust on wheat, class of control value, read-out: Test E control value class): > 50%
pest or weed control at 250 µg/mL (Magnaporthe grisea; read-out: Test A control value class): > 50%
pest or weed control at 250 µg/mL (Alternaia brassicicola; Alternaria sooty spot on cabbage, class of control value, read-out: Test C control value class): > 50%
pest or weed control at 250 ppm (Plasmopara viticola; read-out: Test G control value class): > 50%

CCCc1ccc(=O)n(C)c1-c1ccc(F)cc1Cl [compound 329]
Test H control value [1, 8]: L (50% or less control value)
Test F control value (Phytophthora infestans; [9]): L (50% or less control value)
Test D control value [2, 10]: H (more than 50% control value)
Test B control value (Botrytis cinerea; [11]): H (more than 50% control value)
Test E control value (Puccinia recondita; [12]): H (more than 50% control value)
Test A control value (Magnaporthe grisea; [13]): L (50% or less control value)
Test C control value (Alternaia brassicicola; [14]): L (50% or less control value)
Test G control value (Plasmopara viticola; [15]): L (50% or less control value)

CCn1c(-c2c(F)cc(F)cc2F)c(CO)ccc1=O [compound 478]
Test H control value [1, 5]: L (50% or less control value)
Test F control value (Phytophthora infestans; [6]): L (50% or less control value)
Test D control value [2, 6]: H (more than 50% control value)
Test B control value (Botrytis cinerea; [6]): L (50% or less control value)
Test E control value (Puccinia recondita; [6]): L (50% or less control value)
Test A control value (Magnaporthe grisea; [6]): L (50% or less control value)
Test C control value (Alternaia brassicicola; [6]): L (50% or less control value)
Test G control value (Plasmopara viticola; [7]): L (50% or less control value)

CCCc1ccc(=O)n(CC)c1-c1ccc(F)cc1Br [compound 361]
Test H control value [1, 8]: L (50% or less control value)
Test F control value (Phytophthora infestans; [9]): L (50% or less control value)
Test D control value [2, 10]: H (more than 50% control value)
Test B control value (Botrytis cinerea; [11]): H (more than 50% control value)
Test E control value (Puccinia recondita; [12]): H (more than 50% control value)
Test A control value (Magnaporthe grisea; [13]): H (more than 50% control value)
Test C control value (Alternaia brassicicola; [14]): L (50% or less control value)
Test G control value (Plasmopara viticola; [15]): L (50% or less control value)

CCCc1cc(Cl)c(=O)n(CC)c1-c1ccc(F)cc1Br [compound 368]
Test H control value [1, 8]: H (more than 50% control value)
Test F control value (Phytophthora infestans; [9]): H (more than 50% control value)
Test D control value [2, 10]: H (more than 50% control value)
Test B control value (Botrytis cinerea; [11]): H (more than 50% control value)
Test E control value (Puccinia recondita; [12]): H (more than 50% control value)
Test A control value (Magnaporthe grisea; [13]): H (more than 50% control value)
Test C control value (Alternaia brassicicola; [14]): H (more than 50% control value)
Test G control value (Plasmopara viticola; [15]): H (more than 50% control value)

CCn1c(-c2ccc(F)cc2F)c(CC(C)C)cc(Br)c1=O [compound 120]
Test H control value class ([1]; 250 ppm spray): H (more than 50% control value)
Test F control value class (Phytophthora infestans; Late blight on tomato): L (50% or less control value)
Test D control value class ([2]; Powdery mildew on barley): H (more than 50% control value)
Test B control value class (Botrytis cinerea; Gray mold on tomato): H (more than 50% control value)
Test E control value class (Puccinia recondita; [3]): H (more than 50% control value)
Test A control value class (Magnaporthe grisea; Blast on rice): H (more than 50% control value)
Test C control value class (Alternaia brassicicola; [4]): H (more than 50% control value)
Test G control value class (Plasmopara viticola; 250 ppm spray): L (50% or less control value)

CCn1c(-c2ccc(F)cc2)c(C(C)(OC)C(C)C)cc(Cl)c1=O (stereo not drawn) [compound 214]
Test H control value [1, 8]: L (50% or less control value)
Test F control value (Phytophthora infestans; [9]): L (50% or less control value)
Test D control value [2, 10]: H (more than 50% control value)
Test B control value (Botrytis cinerea; [11]): H (more than 50% control value)
Test E control value (Puccinia recondita; [12]): H (more than 50% control value)
Test A control value (Magnaporthe grisea; [13]): H (more than 50% control value)
Test C control value (Alternaia brassicicola; [14]): H (more than 50% control value)
Test G control value (Plasmopara viticola; [15]): L (50% or less control value)

CCn1c(-c2ccc(F)cc2Cl)c(C2CCCC2)ccc1=O [compound 219]
Test H control value [1, 8]: L (50% or less control value)
Test F control value (Phytophthora infestans; [9]): L (50% or less control value)
Test D control value [2, 10]: H (more than 50% control value)
Test B control value (Botrytis cinerea; [11]): H (more than 50% control value)
Test E control value (Puccinia recondita; [12]): H (more than 50% control value)
Test A control value (Magnaporthe grisea; [13]): H (more than 50% control value)
Test C control value (Alternaia brassicicola; [14]): H (more than 50% control value)
Test G control value (Plasmopara viticola; [15]): L (50% or less control value)

CCCc1cc(Cl)c(=O)n(C)c1-c1ccc(F)cc1Br [compound 414]
Test H control value [1, 5]: H (more than 50% control value)
Test F control value (Phytophthora infestans; [6]): L (50% or less control value)
Test D control value [2, 6]: H (more than 50% control value)
Test B control value (Botrytis cinerea; [6]): H (more than 50% control value)
Test E control value (Puccinia recondita; [6]): H (more than 50% control value)
Test A control value (Magnaporthe grisea; [6]): H (more than 50% control value)
Test C control value (Alternaia brassicicola; [6]): H (more than 50% control value)
Test G control value (Plasmopara viticola; [7]): L (50% or less control value)

CCC(=O)c1cc(Cl)c(=O)n(CC)c1-c1c(F)cc(OC)cc1F [compound 51]
Test H control value class ([1]; 250 ppm spray): H (more than 50% control value)
Test F control value class (Phytophthora infestans; Late blight on tomato): L (50% or less control value)
Test D control value class ([2]; Powdery mildew on barley): H (more than 50% control value)
Test B control value class (Botrytis cinerea; Gray mold on tomato): H (more than 50% control value)
Test E control value class (Puccinia recondita; [3]): H (more than 50% control value)
Test A control value class (Magnaporthe grisea; Blast on rice): H (more than 50% control value)
Test C control value class (Alternaia brassicicola; [4]): H (more than 50% control value)
Test G control value class (Plasmopara viticola; 250 ppm spray): L (50% or less control value)
